Data from patent publication US5538834A, “Blocked photographically useful compounds for use with peroxide-containing processes” (Eastman Kodak Company, priority 1994, dated 1996).
Values belong to the molecule of their own block, whether it stands above or below them.

How the values were obtained:
Assay type in all cases: physicochemical
[1] = Accelerated keeping test of coatings, raw stock stability (Example 2); details: 2 weeks at 50° C. and 50% relative humidity; 20160 min
Description: Coatings containing compound 32 as described above were also subjected to accelerated keeping tests to determine raw stock stability.

[2] = Deblocking / dye release from ballasted blocked filter dye coating in alkaline buffer flow cell (Example 2); details: for % reaction after 400 sec.: 6.66667 min
Procedure: DOC Gelatin (2700 mg/m^2)
FILTER DYE LAYER Gelatin (3780 mg/m^2)
bis(vinylsulfonylmethyl)ether
FILMBASE polyacetate-butyrate
Coating strips were suspended in a flow cell while alkaline buffer solutions at 40° C. were passed through it. As deblocking proceeded, the yellow color of the strips was reduced as the water-solublefilter dye was released and washed out of the film.

[3] = Thermal stability: retained blocked developing agent by HPLC after incubation (Examples 3-5); details: 1 week at 100° F. and 50% relative humidity, 10080 min
Procedure: Blocked p-phenylenediamine developing agents 1, 3 and 6 were incorporated in photographic elements and evaluated for image dye formation activity and stability under storage conditions. The photographic elements were prepared as follows. The developing agents were dissolved in a high vapor pressure organic solvent (ethyl acetate for compounds 1 and 6, cyclohexanone for compound 3). The solutions were subsequently emulsified in aqueous gelatin using Alkanol-XC (Du Pont) as a dispersing aid. The dispersions were formulated such that the developing agents were initially present at 3% by weight, gelatin at 4% by weight and Alkanol-XC at 0.4% by weight. The initial slurries were emulsified by passing the mixtures through a colloid mill using known procedures. The organic solvents were then removed by evaporation.
Sets of strips were incubated for 1 week at 100° F. and 50% relativ humidity, and then evaluated by high performance liquid chromatography for amount of retained blocked developing agent. Sensitometry was obtained for step-tablet white-light exposures by contacting the strips with an activator solution at 77° F. The activator solution had the following composition:
The imaging activity and thermal stability of the exemplary blocked developing agents are given in Table V. The thermal stability denotes the percent retention, that is, the relative amount of blocked developing agent remaining after incubation, relative to the amount of developing agent initially coated.

[4] = Ester cleavage rate in solution without and with hydrogen peroxide (Example 1); details: pH 10 solution, 25° C., 5% CH3CN aqueous solution
Procedure: ^a 5% CH3 CN aqueous solution
nonionic surfactant micellar solution
^c pH 10 solution, 25° C.

- recovery after storage [1]: greater than 93%
- t1/2 ([2]; pH 10, 0.2 N H2O2, 40° C.): 3.67 min
- % reaction after 400 sec. ([2]; pH 10, 0.2 N H2O2, 40° C.): 77%
- t1/2 ([2]; pH 10, no H2O2, 40° C.): very long
- % reaction after 400 sec. ([2]; pH 10, no H2O2, 40° C.): 3%
- t1/2 ([2]; pH 10.7, 0.2 N H2O2, 40° C.): 1.17 min
- % reaction after 400 sec. ([2]; pH 10.7, 0.2 N H2O2, 40° C.): 100%
- t1/2 ([2]; pH 10.7, no H2O2, 40° C.): 13 min
- % reaction after 400 sec. ([2]; pH 10.7, no H2O2, 40° C.): 31%
SMILES: CCCCCCCCCCCCCCCCS(=O)(=O)Nc1ccc(C(=O)Nc2cc(COC(=O)Nc3cc(N(C)C)ccc3N=Nc3cccc(C(=O)O)c3)ccc2OC(=O)CC)cc1 [compound 32]

- Retention [3]: 98%
SMILES: CCN(CCNS(C)(=O)=O)c1ccc(NC(=O)OCc2ccc(OC(=O)C(C)C)c(NC(=O)CCCC(=O)O)c2)c(C)c1 [compound 3]

- Retention [3]: 100%
SMILES: CCC(=O)Oc1ccc(COC(=O)Nc2ccc(N(CC)CCNS(C)(=O)=O)cc2C)cc1NC(=O)c1ccc(NS(C)(=O)=O)cc1 [compound 6]

- Retention [3]: 100%
SMILES: CCN(CCNS(C)(=O)=O)c1ccc(NC(=O)OCc2ccc(OC(=O)C(C)(C)C)c(NS(C)(=O)=O)c2)c(C)c1 [compound 1]

- t1/2, 0.1M H2O2 ([4]; 0.1M H2O2): 0.0113 min
- t1/2, no H2O2 ([4]; no H2O2): 95 min
SMILES: CC(C)(C)C(=O)Oc1ccc([N+](=O)[O-])cc1 [p-nitrophenyl pivalate]
